In patent publication US9061997B2, “Quinolinone derivatives” (Centre National de la Recherche Scientifique, priority 2010, dated 2015):
Read-outs that look alike come from different tables or passages of the source.

Assays:
[1] = test system: C3H10T1/2 cells; test: Enzymatic assay of alkaline phosphatase in 96-well plates (differentiation of C3H10T1/2 cells); format: cell-based; settings: for EC50 / Emax: Mus musculus
Procedure: (§1) The effect of the compounds of general formula (I) in accordance with the invention on the stimulation of osteogenesis was determined in vitro by analyzing the differentiation of the C3H10T1/2 pluripotent mesenchymal cell line.
(§2) The test compounds of formula (I) were dissolved in dimethyl sulfoxide (DMSO) to a concentration of 2.5 mM, and then stored at a temperature of −20° C. until use.
(§3) The C3H10T1/2 pluripotent fibroblast cell line (ATCC CCL 226) was cultured under the conditions recommended by the ATCC in DMEM culture medium supplemented with 10% of fetal calf serum at a temperature of 37° C. under an atmosphere at 5% CO2. 24 hours after seeding, the cells were stimulated for 6 days in the presence of the compounds of general formula (I) directly diluted in the culture medium. The activation by these compounds causes differentiation of the cell line to the osteoblast lineage and enables the latter to express alkaline phosphatase. Said alkaline phosphatase is then detected by histochemistry or enzymatic assay.
The C3H10T1/2 cells were seeded onto 96-well plates at a density of 5×10^3 cells per well. The compounds were applied at increasing concentrations ranging from 10 nM to 10 μM. The plates were then incubated for 6 days and the assays were then carried out in quadruplicate according to the methods previously described (Chen et al. 2002; Frank-Kamenetsky et al. 2002).
The cells were washed in cold phosphate buffer (PBS) and then lysed by sonication at 4° C. in 50 μl of solution containing 0.9% of NaCl and 0.2% of Triton X-100. The alkaline phosphatase activity in the resulting lysates was then measured according to the method described by Pepinsky et al. (Pepinsky et al. 1998). After the addition of 100 μl of reaction buffer (200 mM Tris-HCl; pH 10.5; 0.4 M of 2-amino-2-methylpropanol and 8 mM of MgCl2) and of 50 μl of substrate (4 mM of disodium p-nitrophenyl phosphate), the lysates were incubated at 37° C. for 60 min, and then the optical density (OD) was measured at a wavelength of 415 nm. By way of comparison, the activity of the SAG compound, which activates osteogenesis by acting on the Hedgehog pathway, was tested under the same conditions. The GraphPad Prism 4° software was used to plot the curves and to determine the effective concentrations 50 (EC50).

[2] = test system: C3H10T1/2 cells; test: Detection of alkaline phosphatase by histochemistry (differentiation of C3H10T1/2 cells); format: cell-based; settings: 10 μM, 6 days; intensities compound 4>compound 1>compound 8>compound 6; no DMSO-treated cell labeled
Procedure: as §1, §2, §3
For this experiment, the cells are cultured in 6-well plates containing a glass cover slip treated for 1H with 0.05 mg/ml poly-D-lysine. The C3H10T1/2 cells are seeded at a density of 150 000 cells per well. The compounds were applied at a concentration of 10 μM. the Sigma staining kit (85L-3R) was used according to the protocol described. Briefly, after fixing the cells for 30 seconds with a solution of citrate/acetone (2-3) and then rinsing with double-distilled water, the staining is carried out for 30 min in the presence of a solution of Fast-Violet/Naphthol in the dark. The cover slips are then rinsed thoroughly with double-distilled water and then mounted in aqueous medium before being photographed on a DMRXA2 microscope (Leica Microsystems). The cells expressing alkaline phosphatase are stained red.

[3] = C3H 10T1/2, 144 h, 6 days of stimulation, 10 nM to 10 μM, OD 415 nm, mean of 2 to 5 independent experiments, read-out: EC50 on the differentiation of C3H10T1/2 cells measured via alkaline phosphatase activity
[4] = C3H 10T1/2, 144 h, 6 days of stimulation, relative to compound 1 in the same experiment, mean of 2 to 5 independent experiments, read-out: Maximum stimulation, % of maximum activation of compound 1
[5] = dose-response curve produced in parallel with compound 1

CCCCCCn1c(=O)c(C(=O)Nc2ccc(C(=O)OC(C)(C)C)cc2)c(O)c2ccccc21 [Compound 6, tert-butyl 4-(1-hexyl-4-hydroxy-2-oxo-1,2-dihydroquinoline-3-carboxamido)benzoate]
EC50 [1, 3]: 3100 nM
Emax [1, 4]: 62%
Expression of alkaline phosphatase detected by histochemical staining (number of cells labeled) [2]: increase in the number of cells labeled

CCOC(=O)c1ccc(NC(=O)c2c(O)c3ccccc3n(Cc3ccccc3)c2=O)cc1 [Compound 2, ethyl 4-(1-benzyl-4-hydroxy-2-oxo-1,2-dihydroquinoline-3-carboxamido)benzoate]
EC50 [1, 3]: > 3000 nM
Emax [1, 4]: 4%

CCCCCCn1c(=O)c(C(=O)Nc2ccc(C(=O)OCCCC)cc2)c(O)c2ccccc21 [Compound 5, butyl 4-(1-hexyl-4-hydroxy-2-oxo-1,2-dihydroquinoline-3-carboxamido)benzoate]
EC50 [1, 3]: 1500 nM
Emax [1, 4]: 91%

CCCCCCn1c(=O)c(C(=O)Nc2ccc(C(=O)NCCCC)cc2)c(O)c2ccccc21 [Compound 8, N-(4-(butylcarbamoyl)phenyl)-1-hexyl-4-hydroxy-2-oxo-1,2-dihydroquinoline-3-carboxamide]
EC50 [1, 3]: 5800 nM
Emax [1, 4]: 94%
Expression of alkaline phosphatase detected by histochemical staining (number of cells labeled) [2]: increase in the number of cells labeled

CCCCCCn1c(=O)c(C(=O)Nc2ccc(C(=O)OCC)cc2)c(O)c2ccccc21 [Compound 3, ethyl 4-(1-hexyl-4-hydroxy-2-oxo-1,2-dihydroquinoline-3-carboxamido)benzoate]
EC50 [1, 3]: 3600 nM
Emax [1, 4]: 66%

CCCCCCn1c(=O)c(C(=O)Nc2ccc(C(=O)OCc3ccccc3)cc2)c(O)c2ccccc21 [Compound 7, benzyl 4-(1-hexyl-4-hydroxy-2-oxo-1,2-dihydroquinoline-3-carboxamido)benzoate]
EC50 [1, 3]: 2000 nM
Emax [1, 4]: 47%

CCCCCCn1c(=O)c(C(=O)Nc2ccc(C(=O)OCCC)cc2)c(O)c2ccccc21 [Compound 1, propyl 4-(1-hexyl-4-hydroxy-2-oxo-1,2-dihydroquinoline-3-carboxamido)benzoate]
EC50 [1, 3]: 1300 nM
Emax [1, 4]: 100%
Expression of alkaline phosphatase detected by histochemical staining (number of cells labeled) [2]: increase in the number of cells labeled

CCCCCCn1c(=O)c(C(=O)Nc2ccc(C(=O)OC(C)C)cc2)c(O)c2ccccc21 [Compound 9, isopropyl 4-(1-hexyl-4-hydroxy-2-oxo-1,2-dihydroquinoline-3-carboxamido)benzoate]
EC50 [1, 3]: 6500 nM
Emax [1, 4]: 33%

CCCCCCn1c(=O)c(C(=O)Nc2ccc(C(=O)O)cc2)c(O)c2ccccc21 [Compound 4, 4-(1-hexyl-4-hydroxy-2-oxo-1,2-dihydroquinoline-3-carboxamido)benzoic acid]
EC50 [1, 3]: 600 nM
EC50 ([1]; C3H 10T1/2, 144 h, 6 days of stimulation, alkaline phosphatase activity, read-out: Affinity (activation of C3H10T1/2 cell differentiation)): 600 nM
Emax [1, 4]: 124%
Emax ([1]; C3H 10T1/2, excess over compound 1, read-out: Maximum stimulation greater than that of compound 1): 20%
Expression of alkaline phosphatase detected by histochemical staining (number of cells labeled) [2]: increase in the number of cells labeled

CNC1CCC(N(Cc2cccc(-c3ccncc3)c2)C(=O)c2sc3ccccc3c2Cl)CC1 (centres unmarked) [SAG, reference compound]
Affinity compared with compound 1 (FIG. 3) [1, 5]: similar
Maximum stimulation compared with compound 1 (FIG. 3) [1, 5]: lower maximum stimulation than compound 1
